Measurements: patent publication US12110295B2, “WD40 repeat domain protein 5 (WDR5) degradation/disruption compounds and methods of use” (Icahn School of Medicine at Mount Sinai, priority 2018, dated 2024)

Molecular target: WDR5 (Homo sapiens, UniProt P61964)
Test: Screening of putative WDR5 degraders by Western blot in MV4;11 and/or MIAPACA2 cells
Format: cell-based
Set-up: After WDR5 degrader treatment, cells were collected and lysed; endogenous in cells; host or cells: MV4;11 and/or MIAPACA2
Details: summary of screening, FIGS. 6-10
In short: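 MV4;11 (1×10^6/well) or MIAPACA2 (1×10^5/well) cells treated 18 h with compound at paired doses between 0.1 and 10 μM, DMSO as control. Total lysates immunoblotted for WDR5 with vinculin, tubulin or GAPDH loading controls; fluorescent secondary detection.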

| Compound | effective degradation of WDR5 in MV4;11 and/or MIAPACA2 cells |
| --- | --- |
| Cc1ncsc1-c1ccc(CNC(=O)[C@@H]2C[C@@H](O)CN2C(=O)[C@@H](NC(=O)CCCCC(=O)N2CC=C(c3cc(NC(=O)c4c[nH]c(=O)cc4C(F)(F)F)c(N4C[C@@H](C)N(C)[C@@H](C)C4)cc3F)CC2)C(C)(C)C)cc1 [XF078-41, N-(4-fluoro-5-(1-(6-(((S)-1-((2S,4R)-4-hydroxy-2-((4-(4-methylthiazol-5-yl)benzyl)carbamoyl)pyrrolidin-1-yl)-3,3-dimethyl-1-oxobutan-2-yl)amino)-6-oxohexanoyl)-1,2,3,6-tetrahydropyridin-4-yl)-2-((3S,5R)-3,4,5-trimethylpiperazin-1-yl)phenyl)-6-oxo-4-(trifluoromethyl)-1,6-dihydropyridine-3-carboxamide] | able to effectively degrade WDR5 |
| C[C@@H]1CN(c2ccc(-c3cc(CN4CCN(CCNC(=O)CCCCCNc5cccc6c5C(=O)N(C5CCC(=O)NC5=O)C6=O)CC4)ccc3F)cc2NC(=O)c2c[nH]c(=O)cc2C(F)(F)F)C[C@H](C)N1C (stereo partly drawn) [XF078-22, N-(5′-((4-(2-(6-((2-(2,6-dioxopiperidin-3-yl)-1,3-dioxoisoindolin-4-yl)amino)hexanamido)ethyl)piperazin-1-yl)methyl)-2′-fluoro-4-((3S,5R)-3,4,5-trimethylpiperazin-1-yl)-[1,1′-biphenyl]-3-yl)-6-oxo-4-(trifluoromethyl)-1,6-dihydropyridine-3-carboxamide] | able to effectively degrade WDR5 |
| C[C@@H]1CN(c2ccc(-c3cc(CN4CCN(CCNC(=O)CCCCNc5cccc6c5C(=O)N(C5CCC(=O)NC5=O)C6=O)CC4)ccc3F)cc2NC(=O)c2c[nH]c(=O)cc2C(F)(F)F)C[C@H](C)N1C (stereo partly drawn) [XF078-21, N-(5′-((4-(2-(5-((2-(2,6-dioxopiperidin-3-yl)-1,3-dioxoisoindolin-4-yl)amino)pentanamido)ethyl)piperazin-1-yl)methyl)-2′-fluoro-4-((3S,5R)-3,4,5-trimethylpiperazin-1-yl)-[1,1′-biphenyl]-3-yl)-6-oxo-4-(trifluoromethyl)-1,6-dihydropyridine-3-carboxamide] | able to effectively degrade WDR5 |
| Cc1ncsc1-c1ccc(CNC(=O)[C@@H]2C[C@@H](O)CN2C(=O)[C@@H](NC(=O)CCOCCOCCC(=O)N2CCN(c3ncc(-c4cc(NC(=O)c5ccc(F)cc5C(F)(F)F)c(N5C[C@@H](C)N(C)[C@@H](C)C5)cc4F)cn3)CC2)C(C)(C)C)cc1 [XF078-102, (2S,4R)-1-((S)-2-(3-(2-(3-(4-(5-(2-fluoro-5-(4-fluoro-2-(trifluoromethyl)benzamido)-4-((3S,5R)-3,4,5-trimethylpiperazin-1-yl)phenyl)pyrimidin-2-yl)piperazin-1-yl)-3-oxopropoxy)ethoxy)propanamido)-3,3-dimethylbutanoyl)-4-hydroxy-N-(4-(4-methylthiazol-5-yl)benzyl)pyrrolidine-2-carboxamide] | able to effectively degrade WDR5 |
| CN1CCN(c2ccc(-c3cccc(CN4CCN(CCNC(=O)CCCCCCCOc5cccc6c5C(=O)N(C5CCC(=O)NC5=O)C6=O)CC4)c3)cc2NC(=O)c2c[nH]c(=O)cc2C(F)(F)F)CC1 (stereo not drawn) [XF056-39, N-(3′-((4-(2-(8-((2-(2,6-dioxopiperidin-3-yl)-1,3-dioxoisoindolin-4-yl)oxy)octanamido)ethyl)piperazin-1-yl)methyl)-4-(4-methylpiperazin-1-yl)-[1,1′-biphenyl]-3-yl)-6-oxo-4-(trifluoromethyl)-1,6-dihydropyridine-3-carboxamide] | able to effectively degrade WDR5 |
| Cc1ncsc1-c1ccc(CNC(=O)[C@@H]2C[C@@H](O)CN2C(=O)[C@@H](NC(=O)CCCCCCCCCC(=O)N2CCN(c3ccc(-c4cc(NC(=O)c5c[nH]c(=O)cc5C(F)(F)F)c(N5C[C@@H](C)N(C)[C@@H](C)C5)cc4F)cn3)CC2)C(C)(C)C)cc1 [XF067-133, N-(4-fluoro-5-(6-(4-(11-(((S)-1-((2S,4R)-4-hydroxy-2-((4-(4-methylthiazol-5-yl)benzyl)carbamoyl)pyrrolidin-1-yl)-3,3-dimethyl-1-oxobutan-2-yl)amino)-11-oxoundecanoyl)piperazin-1-yl)pyridin-3-yl)-2-((3S,5R)-3,4,5-trimethylpiperazin-1-yl)phenyl)-6-oxo-4-(trifluoromethyl)-1,6-dihydropyridine-3-carboxamide] | able to effectively degrade WDR5 |

Continued, values first:

| effective degradation of WDR5 in MV4;11 and/or MIAPACA2 cells | Compound |
| --- | --- |
| able to effectively degrade WDR5 | Cc1ncsc1-c1ccc(CNC(=O)[C@@H]2C[C@@H](O)CN2C(=O)[C@@H](NC(=O)COCCOCCOCCOCCOCC(=O)N2CCN(Cc3cnc(N4CC=C(c5cc(NC(=O)c6c[nH]c(=O)cc6C(F)(F)F)c(N6C[C@@H](C)N(C)[C@@H](C)C6)cc5F)CC4)nc3)CC2)C(C)(C)C)cc1 [XF078-139, N-(4-fluoro-5-(1-(5-((4-((S)-19-((2S,4R)-4-hydroxy-2-((4-(4-methylthiazol-5-yl)benzyl)carbamoyl)pyrrolidine-1-carbonyl)-20,20-dimethyl-17-oxo-3,6,9,12,15-pentaoxa-18-azahenicosanoyl)piperazin-1-yl)methyl)pyrimidin-2-yl)-1,2,3,6-tetrahydropyridin-4-yl)-2-((3S,5R)-3,4,5-trimethylpiperazin-1-yl)phenyl)-6-oxo-4-(trifluoromethyl)-1,6-dihydropyridine-3-carboxamide] |
| able to effectively degrade WDR5 | C[C@@H]1CN(c2cc(F)c(C3=CCN(c4ncc(CN5CCN(C(=O)CCOCCOCCOCCOCCNc6cccc7c6C(=O)N(C6CCC(=O)NC6=O)C7=O)CC5)cn4)CC3)cc2NC(=O)c2c[nH]c(=O)cc2C(F)(F)F)C[C@H](C)N1C (stereo partly drawn) [XF078-159, N-(5-(1-(5-((4-(1-((2-(2,6-dioxopiperidin-3-yl)-1,3-dioxoisoindolin-4-yl)amino)-3,6,9,12-tetraoxapentadecan-15-oyl)piperazin-1-yl)methyl)pyrimidin-2-yl)-1,2,3,6-tetrahydropyridin-4-yl)-4-fluoro-2-((3S,5R)-3,4,5-trimethylpiperazin-1-yl)phenyl)-6-oxo-4-(trifluoromethyl)-1,6-dihydropyridine-3-carboxamide] |
| able to effectively degrade WDR5 | Cc1ncsc1-c1ccc(CNC(=O)[C@@H]2C[C@@H](O)CN2C(=O)[C@@H](NC(=O)COCCOCCOCC(=O)N2CCN(Cc3cnc(N4CC=C(c5cc(NC(=O)c6c[nH]c(=O)cc6C(F)(F)F)c(N6C[C@@H](C)N(C)[C@@H](C)C6)cc5F)CC4)nc3)CC2)C(C)(C)C)cc1 [XF078-136, N-(4-fluoro-5-(1-(5-((4-((S)-13-((2S,4R)-4-hydroxy-2-((4-(4-methylthiazol-5-yl)benzyl)carbamoyl)pyrrolidine-1-carbonyl)-14,14-dimethyl-11-oxo-3,6,9-trioxa-12-azapentadecanoyl)piperazin-1-yl)methyl)pyrimidin-2-yl)-1,2,3,6-tetrahydropyridin-4-yl)-2-((3S,5R)-3,4,5-trimethylpiperazin-1-yl)phenyl)-6-oxo-4-(trifluoromethyl)-1,6-dihydropyridine-3-carboxamide] |
| able to effectively degrade WDR5 | C[C@@H]1CN(c2ccc(-c3cc(CN4CCN(CCNC(=O)CCOCCOCCOCCOCCNc5cccc6c5C(=O)N(C5CCC(=O)NC5=O)C6=O)CC4)ccc3F)cc2NC(=O)c2c[nH]c(=O)cc2C(F)(F)F)C[C@H](C)N1C (stereo partly drawn) [XF078-28, N-(5′-((4-(1-((2-(2,6-dioxopiperidin-3-yl)-1,3-dioxoisoindolin-4-yl)amino)-15-oxo-3,6,9,12-tetraoxa-16-azaoctadecan-18-yl)piperazin-1-yl)methyl)-2′-fluoro-4-((3S,5R)-3,4,5-trimethylpiperazin-1-yl)-[1,1′-biphenyl]-3-yl)-6-oxo-4-(trifluoromethyl)-1,6-dihydropyridine-3-carboxamide] |
| able to effectively degrade WDR5 | Cc1ncsc1-c1ccc(CNC(=O)[C@@H]2C[C@@H](O)CN2C(=O)[C@@H](NC(=O)CCOCCOCCC(=O)N2CCN(Cc3cnc(N4CC=C(c5cc(NC(=O)c6c[nH]c(=O)cc6C(F)(F)F)c(N6C[C@@H](C)N(C)[C@@H](C)C6)cc5F)CC4)nc3)CC2)C(C)(C)C)cc1 [XF078-135, N-(4-fluoro-5-(1-(5-((4-(3-(2-(3-(((S)-1-((2S,4R)-4-hydroxy-2-((4-(4-methylthiazol-5-yl)benzyl)carbamoyl)pyrrolidin-1-yl)-3,3-dimethyl-1-oxobutan-2-yl)amino)-3-oxopropoxy)ethoxy)propanoyl)piperazin-1-yl)methyl)pyrimidin-2-yl)-1,2,3,6-tetrahydropyridin-4-yl)-2-((3S,5R)-3,4,5-trimethylpiperazin-1-yl)phenyl)-6-oxo-4-(trifluoromethyl)-1,6-dihydropyridine-3-carboxamide] |
| able to effectively degrade WDR5 | C[C@@H]1CN(c2cc(F)c(C3=CCN(c4ncc(CN5CCN(C(=O)CCOCCOCCOCCOCCOCCNc6cccc7c6C(=O)N(C6CCC(=O)NC6=O)C7=O)CC5)cn4)CC3)cc2NC(=O)c2c[nH]c(=O)cc2C(F)(F)F)C[C@H](C)N1C (stereo partly drawn) [XF078-160, N-(5-(1-(5-((4-(1-((2-(2,6-dioxopiperidin-3-yl)-1,3-dioxoisoindolin-4-yl)amino)-3,6,9,12,15-pentaoxaoctadecan-18-oyl)piperazin-1-yl)methyl)pyrimidin-2-yl)-1,2,3,6-tetrahydropyridin-4-yl)-4-fluoro-2-((3S,5R)-3,4,5-trimethylpiperazin-1-yl)phenyl)-6-oxo-4-(trifluoromethyl)-1,6-dihydropyridine-3-carboxamide] |
